target: T1, human NaV1.8 (Homo sapiens, UniProt Q9Y5Y9); test: Nav1.8 Qube® Assay (automated 384-well patch-clamp, inhibition of sodium current); assay type: cell-based; details: human NaV1.8 channels stably expressed in HEK 293 cells, room temperature
T1 construct: expressed in transfected cells
Outline: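 Whole-cell voltage clamp at room temperature in HEK293 cells stably expressing NaV1.8; from −90 mV hold, 10 s 1 Hz train of 20 ms pulses to 10 mV with 980 ms repolarization to −67 mV. Peak currents of 1st and 10th pulses give resting and inactivated-state IC50s, Hill fit.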

T1 sequence (Q9Y5Y9 whole entry): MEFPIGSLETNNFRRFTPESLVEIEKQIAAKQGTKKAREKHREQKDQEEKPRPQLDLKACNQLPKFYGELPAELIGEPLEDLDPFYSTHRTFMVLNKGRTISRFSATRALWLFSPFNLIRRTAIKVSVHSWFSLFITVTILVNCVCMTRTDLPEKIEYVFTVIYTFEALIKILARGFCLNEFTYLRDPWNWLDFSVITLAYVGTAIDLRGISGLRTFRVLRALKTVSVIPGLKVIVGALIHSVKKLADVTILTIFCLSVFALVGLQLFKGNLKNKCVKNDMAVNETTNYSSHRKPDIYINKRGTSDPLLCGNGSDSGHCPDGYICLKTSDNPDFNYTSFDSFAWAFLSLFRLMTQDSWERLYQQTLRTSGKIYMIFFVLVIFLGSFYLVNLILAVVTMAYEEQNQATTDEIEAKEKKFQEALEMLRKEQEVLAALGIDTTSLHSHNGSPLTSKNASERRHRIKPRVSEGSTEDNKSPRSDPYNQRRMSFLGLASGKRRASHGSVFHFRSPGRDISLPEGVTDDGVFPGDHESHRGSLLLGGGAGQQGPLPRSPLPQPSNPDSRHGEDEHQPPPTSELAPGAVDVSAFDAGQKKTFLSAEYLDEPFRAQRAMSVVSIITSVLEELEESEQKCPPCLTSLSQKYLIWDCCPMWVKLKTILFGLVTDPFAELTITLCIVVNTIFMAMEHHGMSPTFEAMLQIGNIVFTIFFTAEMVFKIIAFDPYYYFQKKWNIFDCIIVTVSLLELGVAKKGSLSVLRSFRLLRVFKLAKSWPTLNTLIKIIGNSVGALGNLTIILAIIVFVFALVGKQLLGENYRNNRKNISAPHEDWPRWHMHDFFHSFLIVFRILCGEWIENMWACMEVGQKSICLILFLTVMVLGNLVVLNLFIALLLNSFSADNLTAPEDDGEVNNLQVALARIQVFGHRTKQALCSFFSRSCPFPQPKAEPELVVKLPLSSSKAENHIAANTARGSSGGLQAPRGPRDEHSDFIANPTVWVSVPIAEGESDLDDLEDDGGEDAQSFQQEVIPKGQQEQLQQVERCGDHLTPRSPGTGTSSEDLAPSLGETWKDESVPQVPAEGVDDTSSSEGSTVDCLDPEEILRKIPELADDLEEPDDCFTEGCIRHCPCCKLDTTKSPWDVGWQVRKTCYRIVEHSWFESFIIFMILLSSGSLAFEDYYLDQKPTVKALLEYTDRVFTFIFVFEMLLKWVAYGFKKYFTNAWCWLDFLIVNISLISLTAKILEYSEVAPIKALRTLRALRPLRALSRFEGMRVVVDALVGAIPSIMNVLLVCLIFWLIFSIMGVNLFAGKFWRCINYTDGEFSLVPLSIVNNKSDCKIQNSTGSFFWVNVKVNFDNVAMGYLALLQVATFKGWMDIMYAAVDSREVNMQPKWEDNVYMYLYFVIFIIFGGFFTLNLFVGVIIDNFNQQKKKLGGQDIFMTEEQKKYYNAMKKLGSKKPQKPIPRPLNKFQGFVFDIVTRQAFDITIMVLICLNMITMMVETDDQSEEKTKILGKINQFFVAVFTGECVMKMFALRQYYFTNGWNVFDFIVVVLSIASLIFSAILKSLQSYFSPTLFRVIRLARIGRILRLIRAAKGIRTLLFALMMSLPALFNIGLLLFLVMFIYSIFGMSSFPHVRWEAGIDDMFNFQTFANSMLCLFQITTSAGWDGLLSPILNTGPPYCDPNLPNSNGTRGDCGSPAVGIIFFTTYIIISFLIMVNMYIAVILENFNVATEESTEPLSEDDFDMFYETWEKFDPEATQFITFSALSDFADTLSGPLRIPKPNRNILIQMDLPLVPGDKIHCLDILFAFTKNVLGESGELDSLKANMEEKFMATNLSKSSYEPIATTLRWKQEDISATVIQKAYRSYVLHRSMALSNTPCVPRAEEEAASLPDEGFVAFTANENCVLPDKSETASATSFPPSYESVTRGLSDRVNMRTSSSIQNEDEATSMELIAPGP

| SMILES | IC50 [nM] |
| --- | --- |
| C[C@@H]1C(=O)NCCN1C(=O)NC(c1ccc(F)c(C(F)(F)F)c1)C1CCC(C(F)(F)F)OC1 (single isomer, unassigned) [Example 60A, (2R)—N-((1(R or S))-(4-fluoro-3-(trifluoromethyl)phenyl)-trans-(6-(trifluoromethyl)tetrahydro-2H-pyran-3-yl)methyl)-2-methyl-3-oxopiperazine-1-carboxamide] | 10.1 |
| C[C@@H]1C(=O)NCCN1C(=O)NC(c1ccc(F)c(Cl)c1)C1CCC(F)(F)CC1 (single isomer, unassigned) [Example 14B, (2R)-N-((S or R)-(3-chloro-4-fluoro-phenyl)(4,4-difluoro-cyclohexyl)methyl)-2-methyl-3-oxo-piperazine-1-carboxamide] | 359 |
| [2H]C1([2H])NC(=O)C(C)N(C(=O)N[C@H](c2ccc(F)c(Cl)c2F)[C@H]2C[C@H](C(F)(F)F)C2)C1([2H])[2H] (single isomer, unassigned) [Example 59A, (R or S)—N—((S)-(3-chloro-2,4-difluorophenyl)((trans)-3-(trifluoromethyl)cyclobutyl)methyl)-2-methyl-3-oxopiperazine-5,5,6,6-d4-1-carboxamide] | 2.6 |
| C[C@@H]1C(=O)NCCN1C(=O)NC(c1ccc(F)c(Cl)c1F)C1CCC(F)(F)C1 (single isomer, unassigned) [Example 42D, (2R)-N-((S or R)-(3-chloro-2,4-difluoro-phenyl)((S or R)-3,3-difluorocyclopentyl)-methyl)-2-methyl-3-oxopiperazine-1-carboxamide] | 20.1 |
| C[C@@H]1C(=O)NCCN1C(=O)NC(c1ccc(F)c(Cl)c1F)C1CC2(C1)CC2(F)F (single isomer, unassigned) [Example 22A, (2R)-N-((R or S)-(3-chloro-2,4-difluoro-phenyl)(trans or cis-1,1-difluoro-spiro[2,3]-hexan-5-yl)methyl)-2-methyl-3-oxopiperazine-1-carboxamide] | 2.9 |
| O=C1NCCN(C(=O)N[C@H](c2ccc(F)c(Cl)c2F)[C@H]2C[C@H](C(F)(F)F)C2)C1C(F)(F)F (single isomer, unassigned) [Example 63B, (S or R)—N—((S)-(3-chloro-2,4-difluorophenyl)((trans)-3-(trifluoromethyl)cyclobutyl)methyl)-3-oxo-2-(trifluoromethyl)piperazine-1-carboxamide] | 9.1 |
| C[C@@H]1C(=O)NCCN1C(=O)NC(c1ccc(F)c(Cl)c1F)[C@H]1CC[C@H](C(F)(F)F)CC1 (single isomer, unassigned) [Example 9A, (2R)-N-((R or S)-(3-chloro-2,4-difluoro-phenyl)(trans-4-(trifluoromethyl)cyclo-hexyl)methyl)-2-methyl-3-oxo-piperazine-1-carboxamide] | 46.8 |
| C=C1CC(C(NC(=O)N2CCNC(=O)[C@H]2C)c2ccc(F)c(Cl)c2F)C1 (single isomer, unassigned) [Example 25B, (2R)-N-((S or R)-(3-chloro-2,4-difluoro-phenyl)(3-methylene-scyclobutyl)methyl)-2-methyl-3-oxopiperazine-1-carboxamide] | 652 |
| C[C@@H]1C(=O)NCCN1C(=O)NC(c1ccc(F)c(Cl)c1F)C12CC(C(F)(F)F)(C1)C2 (single isomer, unassigned) [Example 30A] | 281 |
| O=C1CN(C(=O)NC(c2ccc(F)c(Cl)c2)C2CCN(CC(F)(F)F)CC2)CCN1 (single isomer, unassigned) [Example 17B, N-((S or R)-(3-chloro-4-fluorophenyl)(1-(2,2,2-trifluoroethyl)piperidin-4-yl)methyl)-3-oxopiperazine-1-carboxamide] | 136 |
| C[C@@H]1C(=O)NCCN1C(=O)NC(c1ccc(F)c(Cl)c1F)C1CC(C2CC2)C1 (single isomer, unassigned) [Example 21A, (2R)-N-((R or S)-(3-chloro-2,4-difluoro-phenyl)(trans or cis-3-cyclopropylcyclobutyl)methyl)-2-methyl-3-oxopiperazine-1-carboxamide] | 1.08 |
| C=C1CC(C(NC(=O)N2CCNC(=O)[C@H]2C)c2ccc(F)c(Cl)c2F)C1 (single isomer, unassigned) [Example 25A, (2R)-N-((R or S)-(3-chloro-2,4-difluoro-phenyl)(3-methylene-cyclobutyl)methyl)-2-methyl-3-oxopiperazine-1-carboxamide] | 10.4 |
| C[C@@H]1C(=O)NCCN1C(=O)NC(c1ccc(F)c(Cl)c1F)C1CC2(CC2)C1 (single isomer, unassigned) [Example 28A, (2R)—N—((R or S)-(3-chloro-2,4-difluorophenyl)(spiro[2.3]hexan-5-yl)methyl)-2-methyl-3-oxopiperazine-1-carboxamide] | 2.65 |
| C[C@@H]1C(=O)NCCN1C(=O)NC(c1ccc(F)c(Cl)c1F)C1CC(OC(F)F)C1 (single isomer, unassigned) [Example 39A, (2R)-N-((R or S)-(3-chloro-2,4-difluoro-phenyl)(trans-3-(difluoromethoxy)-cyclobutyl)methyl)-2-methyl-3-oxopiperazine-1-carboxamide] | 816 |
| C[C@@H]1C(=O)NCCN1C(=O)NC(c1ccc(F)c(Cl)c1)C1CCC(F)(F)CC1 (single isomer, unassigned) [Example 14A, (2R)-N-((R or S)-(3-chloro-4-fluoro-phenyl)(4,4-difluoro-cyclohexyl)methyl)-2-methyl-3-oxo-piperazine-1-carboxamide] | 18.5 |
| C[C@@H]1C(=O)NCCN1C(=O)N[C@@H](c1ccc(F)c(Cl)c1F)[C@H]1C[C@H](C(F)(F)F)C1 [Example 20B, (R)—N—((R)-(3-chloro-2,4-difluorophenyl)(trans-3-(trifluoromethyl)cyclobutyl)methyl)-2-methyl-3-oxopiperazine-1-carboxamide] | 191 |
| C[C@@H]1C(=O)NCCN1C(=O)NC(c1ccc(F)c(Cl)c1F)[C@H]1C[C@H](C(F)F)C1 (single isomer, unassigned) [Example 29B] | 66.5 |
| C[C@@H]1C(=O)NCCN1C(=O)NC(c1ccc(Cl)c(C(F)(F)F)n1)C1CCC(F)(F)CC1 (single isomer, unassigned) [Example 46B, (2R)-N-((S or R)-(5-chloro-6-(trifluoro-methyl)pyridin-2-yl)(4,4-difluoro-cyclohexyl)methyl)-2-methyl-3-oxo-piperazine-1-carboxamide] | 23.7 |
| O=C1NCCN(C(=O)N[C@H](c2ccc(F)c(Cl)c2F)[C@H]2C[C@H](C(F)(F)F)C2)C1C1CC1 (single isomer, unassigned) [Example 27A, (R or S)—N—((S)-(3-chloro-2,4-difluorophenyl)(trans-3-(trifluoromethyl)cyclobutyl)methyl)-2-cyclopropyl-3-oxopiperazine-1-carboxamide] | 0.8 |
| C[C@@H]1C(=O)NCCN1C(=O)NC(c1ccc(F)c(Cl)c1F)C1CC12CC2 (single isomer, unassigned) [Example 41B, (2R)-N-((S or R)-(3-chloro-2,4-difluoro-phenyl)((R or S)-spiro[2.2]pentan-1-yl)methyl)-2-methyl-3-oxopiperazine-1-carboxamide] | 1180 |
| O=C1NCCN(C(=O)N[C@H](c2ccc(F)c(Cl)c2F)[C@H]2C[C@H](C(F)(F)F)C2)C1C(F)(F)F (single isomer, unassigned) [Example 63A, (R or S)—N—((S)-(3-chloro-2,4-difluorophenyl)((trans)-3-(trifluoromethyl)cyclobutyl)methyl)-3-oxo-2-(trifluoromethyl)piperazine-1-carboxamide] | 1.8 |
| C[C@@H]1C(=O)NCCN1C(=O)NC(c1ccc(F)c(Cl)c1F)[C@H]1C[C@H](C(F)F)C1 (single isomer, unassigned) [Example 29A] | 8.91 |
| CC(N1CCC(C(NC(=O)N2CCNC(=O)[C@H]2C)c2ccc(F)c(Cl)c2)CC1)C(F)(F)F (single isomer, unassigned) [Example 18D] | 83.5 |
| C[C@@H]1C(=O)NCCN1C(=O)NC(c1ccc(F)c(Cl)c1F)C1CCC(C(F)(F)F)C1 (single isomer, unassigned) [Example 58C, (2R)—N—((R or S)-(3-chloro-2,4-difluorophenyl)(trans-3-(trifluoromethyl)cyclopentyl)methyl)-2-methyl-3-oxopiperazine-1-carboxamide] | 5.1 |
| O=C1CN(C(=O)NC(c2ccc(F)c(Cl)c2)C23CC(C(F)(F)F)(C2)C3)CCN1 (single isomer, unassigned) [Example 34A, N-((R or S)-(3-chloro-4-fluorophenyl)(3-(trifluoromethyl)bicyclo [1.1.1]pentan-1-yl)methyl)-3-oxopiperazine-1-carboxamide] | 601 |
| O=C1CN(C(=O)NC(c2ccc(F)c(Cl)c2)C23CC(C(F)(F)F)(C2)C3)CCN1 (single isomer, unassigned) [Example 34B, N-((S or R)-(3-chloro-4-fluorophenyl)(3-(trifluoromethyl)bicyclo [1.1.1]pentan-1-yl)methyl)-3-oxopiperazine-1-carboxamide] | 47.1 |
| C[C@@H]1C(=O)NCCN1C(=O)NC(c1ccc(C(F)(F)F)nc1)C1CC(C)(C)C1 (single isomer, unassigned) [Example 33A, (2R)-N-((R or S)-(3,3-dimethylcyclobutyl)(6-(trifluoromethyl)pyridin-3-yl)methyl)-2-methyl-3-oxopiperazine-1-carboxamide] | 135 |
| C[C@@H]1C(=O)NCCN1C(=O)NC(c1ccc(Cl)c(C(F)(F)F)n1)C1CC(C(F)(F)F)C1 (single isomer, unassigned) [Example 47C, (2R)—N—((S or R)-(5-chloro-6-(trifluoromethyl)pyridin-2-yl)(trans-3-(trifluoromethyl)cyclobutyl)methyl)-2-methyl-3-oxopiperazine-1-carboxamide] | 2.66 |
